# Article PMC5700124 (Scientific Reports, 2017)
# “Also recorded” adds a separate entry of the source. Like-named read-outs stand apart in the source and are kept apart here.
# Assays:
# plasma proteins [1] = tested on: plasma proteins; design: method as in PMID 7836362; details: cited from earlier work
# [2] = tested on: translocator protein (TSPO); design: method as in Hilmer et al.[39]; details: 0.1 ng/kg i.v.; ref Hilmer et al.[39]; cited from earlier work
# α2 adrenoceptor = details: anterior forebrain; autoradiography; pH 7.7, 22 °C, mg^2+ 0; blocking of NS phentolamine 10 μM; ref Boyajian et al.[41]; cited from earlier work
# α1 and α2 adrenoceptors = tested on: α1 and α2 adrenoceptors; design: method as in PMID 16153828; details: cited from earlier work
# [3] = tested on: α7 nicotinic acetylcholine receptors; design: method as in PMID 26455500; details: 1.24 mg/kg; cited from earlier work
# plasma proteins [4] = experiment: Plasma ultrafiltration, ex vivo (plasma free fraction fP of [^11C]yohimbine); assay type: in vitro ADME, rat; details: 0.3 mg/kg yohimbine i.v., P < 0.05
# Experimental: In the ex vivo experiment, a separate group of six female Sprague Dawley rats were subjected to plasma ultrafiltration and treated identically to animals that underwent PET acquisition. […] We centrifuged the blood samples in heparinized tubes for 20 min at 4 °C to generate plasma and stored the samples at −50 °C.
# To measure fP , we used the Centrifree centrifugal filter device (Millipore, Bedford, MA) with a molecular cutoff of 30 kDa for all samples. […] On the day of fP determination, the plasma samples were thawed in room temperature in 20 min. […] After 10 minutes incubation at room temperature, aliquots of 50 μl of this solution were used to measure the total activity (unfiltered plasma). […] The activity of filtered plasma was determined in triplicates. All samples were counted in a gamma device (Packard Cobra Gamma Counter, Model D5003). […] The correction factor, r, was determined as the ratio of the activity in the phosphate buffer before filtration, Abuffer(total), to the filtered buffer, Abuffer(ultrafiltrate),38 r=Abuffer(total)/Abuffer(ultrafiltrate), from which the plasma-free fraction, fP , was calculated as the ratio of the activity of the filtered plasma, Aplasma(ultrafiltrate), to the unfiltered plasma, Aplama(total), multiplied by the correction factor, r, for recovery,39 fP=rAplasma(ultrafiltrate)/Aplasma(total),
# α2 adrenoceptors [5] = tested on: α2 adrenoceptors; design: method as in Jakobsen and colleagues[14]; details: porcine brain, ref Jakobsen and colleagues[14], cited from earlier work
# [6] = design: method as in Jakobsen et al.[14]; details: pigs, ref Jakobsen et al.[14], cited from earlier work
# [7] = tested on: [^11C]mirtazepin binding in porcine brain; design: method as in Smith et al.[34]; details: ref Smith et al.[34], cited from earlier work
# [8] = rats; cited from earlier work
# α2 adrenoceptor subtypes = tested on: α2 adrenoceptor subtypes; design: method as in PMID 7908054; details: cited from earlier work
# plasma proteins [9] = details: in the circulation; cited from earlier work
# α2 adrenoceptors [10] = experiment: PET of [^11C]yohimbine binding in rat brain at baseline and at challenge with unlabeled yohimbine; details: for Binding potentials, BPND, percent-wise change (%) / Volumes of Distribution, VT, percent-wise change (%): COLD vs BASE, individual rats 1-5
# [11] = CEREB cerebellum, unlabeled yohimbine 0.3 mg/kg i.v.
# [12] = CP caudate putamen, unlabeled yohimbine 0.3 mg/kg i.v.
# [13] = HYP hypothalamus, unlabeled yohimbine 0.3 mg/kg i.v.
# [14] = MC motor cortex, unlabeled yohimbine 0.3 mg/kg i.v.
# [15] = OLF olfactory bulb, unlabeled yohimbine 0.3 mg/kg i.v.
# [16] = PFC prefrontal cortex, unlabeled yohimbine 0.3 mg/kg i.v.
# [17] = SSC somatosensory cortex, unlabeled yohimbine 0.3 mg/kg i.v.
# [18] = THAL thalamus, unlabeled yohimbine 0.3 mg/kg i.v.
# [19] = unlabeled yohimbine 0.3 mg/kg vs baseline
compound,measurement,setting,value
C=CC1=C(C)/C(=C/c2[nH]c(Cc3[nH]c(/C=C4\NC(=O)C(C)=C4C=C)c(C)c3CCC(=O)O)c(CCC(=O)O)c2C)NC1=O [bilirubin],rate of relaxation from plasma proteins,plasma proteins [1],0.6 s⁻¹
lipopolysaccharide [LPS],increase of [^11C] PBR28 VT,[2],39%
"COC(=O)[C@H]1[C@H]2C[C@H]3c4[nH]c5ccccc5c4CCN3C[C@H]2CC[C@@H]1O [[^3H] -rauwolscine, [^3H]rauwolscine]",Kd,α2 adrenoceptor,0.79 nM
Cc1ccc(N(CC2=NCCN2)c2cccc(O)c2)cc1 [phentolamine],selectivity between α1 and α2 adrenoceptors,α1 and α2 adrenoceptors,higher selectivity to α1 adrenoceptor
O=S1(=O)c2cc(N3CCN4CCC3CC4)ccc2-c2cccc(F)c21 [ASEM],increase of fP of [^18F] DBT-10,[3],two-fold increase
COC(=O)[C@@H]1[C@H]2C[C@H]3c4[nH]c5ccccc5c4CCN3C[C@@H]2CC[C@@H]1O [yohimbine],increase of plasma free fraction fP of [^11C]yohimbine compared to baseline,plasma proteins [4],30%
same,reduction of VT of [^11C]yohimbine,α2 adrenoceptors [5]; low dose 0.07 mg/kg,approximately 30%
same,reduction of VT of [^11C]yohimbine,α2 adrenoceptors [5]; pre-treatment 1.7 mg/kg,failed to decrease VT further
same,global lowering of CBF,[6]; higher dose 1.6 mg/kg,30%
same,effect on CBF,[6]; low dose 0.07 mg/kg,unaffected
same,reduction of [^11C]mirtazepin binding,[7]; 0.3 mg/kg,23%
same,reduction of [^11C]mirtazepin binding,[7]; 3.0 mg/kg,43%
same,effect on blood pressure and heart rate,[8],raise blood pressure and heart rate
same,affinity to α2 adrenoceptor subtypes,α2 adrenoceptor subtypes,does not distinguish between the subtypes
same,fraction bound to plasma proteins,plasma proteins [9],More than 80%
same,"Binding potentials, BPND, percent-wise change (%)",α2 adrenoceptors [10]; [11],(−54) %; also recorded: (−63) %; also recorded: (−82) %; also recorded: (−56) %; also recorded: (−51) %
same,"Volumes of Distribution, VT, percent-wise change (%)",α2 adrenoceptors [10]; [11],(19) %; also recorded: (5) %; also recorded: (0) %; also recorded: (16) %; also recorded: (27) %
same,"Binding potentials, BPND, percent-wise change (%)",α2 adrenoceptors [10]; [12],(−64) %; also recorded: (−59) %; also recorded: (−55) %; also recorded: (−47) %
same,"Volumes of Distribution, VT, percent-wise change (%)",α2 adrenoceptors [10]; [12],(−6) %; also recorded: (5) %; also recorded: (25) %; also recorded: (3) %; also recorded: (34) %
same,"Binding potentials, BPND, percent-wise change (%)","α2 adrenoceptors [10]; HIP hippocampus, unlabeled yohimbine 0.3 mg/kg i.v.",(−59) %; also recorded: (−58) %; also recorded: (−50) %; also recorded: (−54) %; also recorded: (−46) %
same,"Volumes of Distribution, VT, percent-wise change (%)","α2 adrenoceptors [10]; HIPP hippocampus, unlabeled yohimbine 0.3 mg/kg i.v.",(4) %; also recorded: (9) %; also recorded: (36) %; also recorded: (14) %; also recorded: (35) %
same,"Binding potentials, BPND, percent-wise change (%)",α2 adrenoceptors [10]; [13],(−58) %; also recorded: (−61) %; also recorded: (−65) %; also recorded: (−53) %; also recorded: (−49) %
same,"Volumes of Distribution, VT, percent-wise change (%)",α2 adrenoceptors [10]; [13],(7) %; also recorded: (5) %; also recorded: (13) %; also recorded: (18) %; also recorded: (33) %
same,"Binding potentials, BPND, percent-wise change (%)",α2 adrenoceptors [10]; [14],(−63) %; also recorded: (−65) %; also recorded: (−50) %; also recorded: (−61) %; also recorded: (−42) %
same,"Volumes of Distribution, VT, percent-wise change (%)",α2 adrenoceptors [10]; [14],(1) %; also recorded: (−6) %; also recorded: (39) %; also recorded: (−1) %; also recorded: (44) %
same,"Binding potentials, BPND, percent-wise change (%)",α2 adrenoceptors [10]; [15],(−71) %; also recorded: (−60) %; also recorded: (−78) %; also recorded: (−53) %; also recorded: (−58) %
same,"Volumes of Distribution, VT, percent-wise change (%)",α2 adrenoceptors [10]; [15],(−15) %; also recorded: (10) %; also recorded: (−6) %; also recorded: (22) %; also recorded: (23) %
same,"Binding potentials, BPND, percent-wise change (%)",α2 adrenoceptors [10]; [16],(−63) %; also recorded: (−60) %; also recorded: (−39) %; also recorded: (−61) %; also recorded: (−44) %
same,"Volumes of Distribution, VT, percent-wise change (%)",α2 adrenoceptors [10]; [16],(−1) %; also recorded: (4) %; also recorded: (53) %; also recorded: (0) %; also recorded: (40) %
same,"Binding potentials, BPND, percent-wise change (%)",α2 adrenoceptors [10]; [17],(−63) %; also recorded: (−62) %; also recorded: (−45) %; also recorded: (−59) %; also recorded: (−41) %
same,"Volumes of Distribution, VT, percent-wise change (%)",α2 adrenoceptors [10]; [17],(−2) %; also recorded: (0) %; also recorded: (47) %; also recorded: (3) %; also recorded: (45) %
same,"Binding potentials, BPND, percent-wise change (%)",α2 adrenoceptors [10]; [18],(−58) %; also recorded: (−57) %; also recorded: (−52) %; also recorded: (−44) %
same,"Volumes of Distribution, VT, percent-wise change (%)",α2 adrenoceptors [10]; [18],(7) %; also recorded: (22) %; also recorded: (15) %; also recorded: (37) %
same,"degree of saturation, s (available receptors blocked)","α2 adrenoceptors [10]; average, 0.3 mg/kg yohimbine challenge, Extended Inhibition Plot",56%
same,decline of BPND of [^11C]yohimbine in the challenge condition compared to baseline,"α2 adrenoceptors [10]; on average, unlabeled yohimbine 0.3 mg/kg i.v.",50–60%
same,effect of challenge on K1 of [^11C]yohimbine,α2 adrenoceptors [10]; [19],markedly elevated
same,effect of challenge on k2′ of [^11C]yohimbine,α2 adrenoceptors [10]; [19],higher
